Experimental data taken from BindingDB's records for doi:10.1016/j.bioorg.2017.01.008 (University of Karachi, 2017).
Several values for one entry are separate records, joined by “and”; a condition that tells them apart may be missing. Identical values can stand only once.

Key:
[1] = molecular target: T1, Alkaline phosphatase, tissue-nonspecific isozyme (Bos taurus, UniProt P09487); test: Alkaline Phosphatase Inhibition Assay; details: pH 9.8; 37 °C
T1 sequence (P09487 whole entry): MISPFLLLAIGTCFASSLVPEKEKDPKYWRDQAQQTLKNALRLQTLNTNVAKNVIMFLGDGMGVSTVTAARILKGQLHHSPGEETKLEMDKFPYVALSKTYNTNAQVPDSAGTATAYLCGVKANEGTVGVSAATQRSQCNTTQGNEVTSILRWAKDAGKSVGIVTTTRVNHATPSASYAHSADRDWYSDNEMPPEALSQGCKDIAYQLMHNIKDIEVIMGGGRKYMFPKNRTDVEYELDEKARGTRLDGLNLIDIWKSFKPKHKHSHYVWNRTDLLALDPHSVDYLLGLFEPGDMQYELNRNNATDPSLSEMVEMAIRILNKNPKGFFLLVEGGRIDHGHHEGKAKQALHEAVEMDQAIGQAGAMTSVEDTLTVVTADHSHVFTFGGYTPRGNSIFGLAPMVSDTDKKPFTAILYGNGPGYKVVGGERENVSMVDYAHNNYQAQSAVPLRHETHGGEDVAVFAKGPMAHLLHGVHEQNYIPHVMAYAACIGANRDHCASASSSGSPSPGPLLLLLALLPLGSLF
Protocol: (§1) Alkaline phosphatase (b-TNAP, c-IAP purchased from Calzyme Laboratories, Inc. USA) inhibition assay of different cyclic sulfonamides was performed using a chemiluminescent substrate i.e. CDP-Star® (disodium 2-chloro-5-(4-methoxyspiro[1,2-dioxetane-3,2'-(5-chlorotricyclo[3.3.1.13.7]decan])-4-yl]-1-phenyl phosphate). With a slight modification in reported spectrophotometric procedure, an optimized conditions of the bioassay were developed [Hessle et al., Proc. Natl. Acad. Sci., 99:9445-9449]. Buffer solution for this bioassay was composed of 8 M DEA (pH 9.8) that contain 2.5 mM MgCl2 and 0.05 mM ZnCl2. First of all, the compounds were tested at the final concentration of 200 μM(with final DMSO 1% (v/v)). In bioassay procedure, the total volume (50 μL solution) contained 10 μL of tested compound, followed by the addition of 20 μL of TNAP (1:800 times diluted (0.8 unit/mL) enzyme in assay buffer) or 20 μL of IAP (1:800 times diluted (1 unit/mL) enzyme in assay buffer). The mixture was allowed to incubate for 3-5 min at 37 °C and luminescence was measured using microplate reader (BioTek FLx800, Instruments,Inc. USA). The reaction was initiated by the addition of 20 μL of CDP-star® (final concentration of 110 μM) and the assay mixture was incubated again at 37 °C. The change in the luminescence was measured after for 15 min of incubation. The activity of each compound was compared with total activity control (without any inhibitor). Levamisole (2 mM per well) and L-phenylalanine (4 mM per well) were used as a standard inhibitors for tissuenonspecific alkaline phosphatase (TNAP) and calf intestinal alkaline phosphatase (IAP), respectively.

[2] = molecular target: Intestinal-type alkaline phosphatase (Bos taurus, UniProt P19111); test: Alkaline Phosphatase Inhibition Assay; details: pH 9.8; 37 °C
Protocol: as §1

Sequence of Intestinal-type alkaline phosphatase (P19111 whole entry): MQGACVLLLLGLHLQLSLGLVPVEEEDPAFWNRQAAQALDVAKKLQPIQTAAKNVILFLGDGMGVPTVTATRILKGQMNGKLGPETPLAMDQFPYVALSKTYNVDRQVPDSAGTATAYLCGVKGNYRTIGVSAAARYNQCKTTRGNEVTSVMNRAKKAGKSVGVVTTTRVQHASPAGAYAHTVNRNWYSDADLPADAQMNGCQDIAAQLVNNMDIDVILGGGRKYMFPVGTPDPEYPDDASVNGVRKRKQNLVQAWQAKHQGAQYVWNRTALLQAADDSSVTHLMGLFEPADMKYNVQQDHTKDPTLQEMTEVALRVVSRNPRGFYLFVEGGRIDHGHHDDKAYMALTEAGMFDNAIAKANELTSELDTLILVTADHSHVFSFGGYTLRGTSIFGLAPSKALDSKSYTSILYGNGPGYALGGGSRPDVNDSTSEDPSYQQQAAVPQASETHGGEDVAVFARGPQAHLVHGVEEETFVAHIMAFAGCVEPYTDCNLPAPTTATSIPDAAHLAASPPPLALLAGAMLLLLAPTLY

SMILES | IC50 [1] | IC50 [2] [nM]
COc1ccc(C2NS(=O)(=O)c3cccc4c(N(C)C)ccc2c34)c(OC)c1OC (stereo unspecified) [6-(Dimethylamino)-3-(2',3',4'-trimethoxyphenyl)-2,3-dihydronaphtho[1,8-de][1,2]thiazine 1,1-dioxide (7n)] | 1190 nM and 510 nM | –
COc1ccc(C2NS(=O)(=O)c3cccc4c(N(C)C)ccc2c34)cc1O (stereo unspecified) [6-(Dimethylamino)-3-(3'-hydroxy-4'-methoxyphenyl)-2,3-dihydronaphtho[1,8-de][1,2]thiazine 1,1-dioxide (7k)] | 270 nM and 1690 nM | –
CN(C)c1ccc2c3c(cccc13)S(=O)(=O)NC2c1cccc([N+](=O)[O-])c1 (stereo unspecified) [6-(Dimethylamino)-3-(3'-nitrophenyl)-2,3-dihydronaphtho[1,8-de][1,2]thiazine 1,1-dioxide (7f)] | 1450 nM | –
CN(C)c1ccc2c3c(cccc13)S(=O)(=O)NC2c1ccc(Cl)cc1 (stereo unspecified) [6-(Dimethylamino)-3-(4'-dichlorophenyl)-2,3-dihydronaphtho[1,8-de][1,2]thiazine 1,1-dioxide (7b)] | 420 nM | –
CN(C)c1ccc2c3c(cccc13)S(=O)(=O)NC2c1ccc(O)cc1 (stereo unspecified) [6-(Dimethylamino)-3-(4'-hydroxyphenyl)-2,3-dihydronaphtho[1,8-de][1,2]thiazine 1,1-dioxide (7d)] | 500 nM | –
Cc1ccc(C2NS(=O)(=O)c3cccc4c(N(C)C)ccc2c34)cc1 (stereo unspecified) [6-(Dimethylamino)-3-(4'-methylphenyl)-2,3-dihydronaphtho[1,8-de][1,2]thiazine 1,1-dioxide (7c)] | 460 nM | –
CSc1ccc(C2NS(=O)(=O)c3cccc4c(N(C)C)ccc2c34)cc1 (stereo unspecified) [6-(Dimethylamino)-3-(4'-thiomethylphenyl)-2,3-dihydronaphtho[1,8-de][1,2]thiazine 1,1-dioxide (7e)] | 6630 nM | –
COc1cc(Br)c(C2NS(=O)(=O)c3cccc4c(N(C)C)ccc2c34)cc1O (stereo unspecified) [6-(Dimethylamino)-3-(5'-bromo-2'-hydroxy-3'-methoxyphenyl)-2,3-dihydronaphtho[1,8-de][1,2]thiazine 1,1-dioxide (7m)] | 440 nM and 680 nM | –
N[C@@H](Cc1ccccc1)C(=O)O [L-[2,3,4,5,6-3H]phenylalanine] | 80200 nM | –

Next, values leading:

IC50 [1] | IC50 [2] [nM] | SMILES
310 nM | – | COc1ccccc1C1NS(=O)(=O)c2cccc3c(N(C)C)ccc1c23 (stereo unspecified) [6-(Dimethylamino)-3-(2'-methoxyphenyl)-2,3-dihydronaphtho[1,8-de][1,2]thiazine 1,1-dioxide (7i)]
270 nM | 380 | CN(C)c1ccc2c3c(cccc13)S(=O)(=O)NC2c1cc(Cl)cc(Cl)c1O (stereo unspecified) [6-(Dimethylamino)-3-(3',5'-dichloro-2-hydroxyphenyl)-2,3-dihydronaphtho[1,8-de][1,2]thiazine 1,1-dioxide (7g)]
200 nM | – | COc1cc(C2NS(=O)(=O)c3cccc4c(N(C)C)ccc2c34)ccc1O (stereo unspecified) [6-(Dimethylamino)-3-(4'-hydroxy-3'-methoxyphenyl)-2,3-dihydronaphtho[1,8-de][1,2]thiazine 1,1-dioxide (7j)]
110 nM | – | CN(C)c1ccc2c3c(cccc13)S(=O)(=O)NC2c1ccc([N+](=O)[O-])cc1 (stereo unspecified) [6-(Dimethylamino)-3-(4'-nitrophenyl)-2,3-dihydronaphtho[1,8-de][1,2]thiazine 1,1-dioxide (7h)]
190 nM | 1120 | CN(C)c1ccc2c3c(cccc13)S(=O)(=O)NC2c1ccccc1 (stereo unspecified) [6-(Dimethylamino)-3-phenyl-2,3-dihydronaphtho[1,8-de][1,2]thiazine 1,1-dioxide (7a)]
